From ChEMBL document CHEMBL1201862, “PubChem BioAssay data set” (2004)
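Where inhibition never reached the appropriate level, the endpoint shown equals the highest concentration tested. Otherwise, values were interpolated linearly from a five-concentration, 48-hour dose response in 96-well plates. GI50 is the concentration that inhibits growth by half.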 Active and inactive are the calls of the source. Cut-off read from the data, not from the text of the source: active = GI50 up to about 1.1 µM and inactive = higher.

Tests used:
Test in all cases: growth of human tumour cells (NCI), 48 h
A498 = system: A498
A549 = system: A549
DU-145 = system: DU-145
HCT-15 = system: HCT-15
HOP-62 = system: HOP-62
HT-29 = system: HT-29
Hs-578T = system: Hs-578T
K562 = system: K562
MDA-MB-231 = system: MDA-MB-231
MDA-MB-435 = system: MDA-MB-435
MDA-N = system: MDA-N
SF-268 = system: SF-268
SF-295 = system: SF-295
SK-MEL-28 = system: SK-MEL-28
SK-MEL-2 = system: SK-MEL-2
SN12C = system: SN12C
SNB-19 = system: SNB-19
SW-620 = system: SW-620
U-251 = system: U-251
MCF7 = system: MCF7

Structure (SMILES) | GI50 (A498) | GI50 (A549) | GI50 (DU-145) | GI50 (HCT-15) | GI50 (HOP-62) | GI50 (HT-29) | GI50 (Hs-578T) | GI50 (K562) | GI50 (MDA-MB-231) | GI50 (MDA-MB-435) | GI50 (MDA-N) | GI50 (SF-268) | GI50 (SF-295) | GI50 (SK-MEL-28) | GI50 (SK-MEL-2) | GI50 (SN12C) | GI50 (SNB-19) | GI50 (SW-620) | GI50 (U-251) | GI50 (MCF7)
C=C(c1ccccc1)[C@@]1(O)CC[C@@H]1N(CC#N)Cc1ccccc1 | 13.6 µM (inactive) | 32.9 µM (inactive) | 80.7 µM (inactive) | 18.7 µM | 97.3 µM (inactive) | 19.8 µM (inactive) | 20.7 µM (inactive) | 42.1 µM (inactive) | 14 µM (inactive) | 22.5 µM (inactive) | 22.3 µM (inactive) | 33.5 µM (inactive) | 58.1 µM (inactive) | 17.2 µM (inactive) | 20.9 µM (inactive) | 20.1 µM (inactive) | 36.6 µM (inactive) | 18.2 µM (inactive) | 53.3 µM (inactive) | 
COc1ccc(/C=C2\C(=O)N(C)C(=O)c3cc(OC)c(OC)cc32)cc1OC | 27.4 µM (inactive) | 65.6 µM (inactive) | 25.3 µM (inactive) | 30.8 µM | 29.9 µM (inactive) | 9.06 µM (inactive) |  | 28.2 µM (inactive) | 39.4 µM (inactive) | 34.5 µM (inactive) | 24.3 µM (inactive) |  | 37.8 µM (inactive) |  | 35.6 µM (inactive) | 32.8 µM (inactive) | 43.3 µM (inactive) | 36.6 µM (inactive) | 33 µM (inactive) | 27.2 µM (inactive)
CC(C)(O)/C=C\P(=O)(O)O |  | > 100 µM (inactive) | > 100 µM (inactive) | > 100 µM | > 100 µM (inactive) | > 100 µM (inactive) | > 100 µM (inactive) | > 100 µM (inactive) |  | > 100 µM (inactive) | > 100 µM (inactive) | > 100 µM (inactive) | > 100 µM (inactive) | > 100 µM (inactive) | > 100 µM (inactive) | > 100 µM (inactive) | > 100 µM (inactive) | > 100 µM (inactive) | > 100 µM (inactive) | > 100 µM (inactive)
CSC1(CC(=O)N2CCCCC2)C(=O)Nc2ccccc21 (configuration not stated) | > 100 µM (inactive) | > 100 µM (inactive) | > 100 µM (inactive) | > 100 µM | > 100 µM (inactive) | > 100 µM (inactive) | > 100 µM (inactive) | > 100 µM (inactive) |  | > 100 µM (inactive) |  | > 100 µM (inactive) | > 100 µM (inactive) | > 100 µM (inactive) | > 100 µM (inactive) |  | > 100 µM (inactive) | > 100 µM (inactive) | > 100 µM (inactive) | > 100 µM (inactive)
CNC(=O)C(NC(=O)[C@H](CC(C)C)NC(=O)[C@@H](S)CCN1C(=O)N(C)C(C)(C)C1=O)C(C)(C)C (some centres not stated) | > 100 µM (inactive) | > 100 µM (inactive) | > 100 µM (inactive) | > 100 µM | > 100 µM (inactive) | > 100 µM (inactive) | > 100 µM (inactive) | 79.6 µM (inactive) |  | > 100 µM (inactive) | > 100 µM (inactive) | > 100 µM (inactive) | > 100 µM (inactive) | > 100 µM (inactive) | > 100 µM (inactive) | > 100 µM (inactive) | > 100 µM (inactive) | > 100 µM (inactive) |  | > 100 µM (inactive)
COC(=O)Oc1nn(C(=O)OC)c(=O)c2ccccc12 |  | > 100 µM (inactive) | > 100 µM (inactive) | > 100 µM | > 100 µM (inactive) |  | 65.8 µM (inactive) | > 100 µM (inactive) | 95.3 µM (inactive) | > 100 µM (inactive) | > 100 µM (inactive) | > 100 µM (inactive) | > 100 µM (inactive) | > 100 µM (inactive) | > 100 µM (inactive) | > 100 µM (inactive) | > 100 µM (inactive) | > 100 µM (inactive) | > 100 µM (inactive) | > 100 µM (inactive)
Cn1c(S)nnc1CNc1ccc(-c2nnc(S)n2C)cc1 |  | > 100 µM (inactive) | > 100 µM (inactive) | > 100 µM | > 100 µM (inactive) | > 100 µM (inactive) |  | > 100 µM (inactive) | > 100 µM (inactive) | > 100 µM (inactive) | > 100 µM (inactive) | > 100 µM (inactive) | > 100 µM (inactive) | > 100 µM (inactive) | > 100 µM (inactive) | > 100 µM (inactive) | > 100 µM (inactive) | > 100 µM (inactive) | > 100 µM (inactive) | > 100 µM (inactive)
COC(=O)C(=O)C(C(=O)OC)C(=O)C(=O)Nc1ccccc1C(N)=O (configuration not stated) | > 100 µM (inactive) | > 100 µM (inactive) |  | > 100 µM | > 100 µM (inactive) | > 100 µM (inactive) | > 100 µM (inactive) |  | > 100 µM (inactive) | > 100 µM (inactive) | > 100 µM (inactive) | > 100 µM (inactive) | > 100 µM (inactive) | > 100 µM (inactive) | > 100 µM (inactive) | > 100 µM (inactive) | > 100 µM (inactive) | > 100 µM (inactive) | > 100 µM (inactive) | > 100 µM (inactive)
Nc1nc(NCc2ccccc2)cc(NCc2ccccc2)n1 | 0.668 µM (active) | 9.48 µM (inactive) |  | 3.52 µM | 12.8 µM (inactive) | 2.88 µM (inactive) | 2.86 µM (inactive) | 5.75 µM (inactive) | 3.49 µM (inactive) | 2.48 µM (inactive) | 1.14 µM (inactive) | 4 µM (inactive) | 4.91 µM (inactive) | 12 µM (inactive) | 8.81 µM (inactive) | 4.57 µM (inactive) | 8.39 µM (inactive) | 5.21 µM (inactive) | 5.14 µM (inactive) | 2.59 µM (inactive)
O=S(=O)(c1ccc(/N=C2\NC(c3ccc(O)cc3)(c3ccccc3O)c3ccccc32)cc1)c1ccc(/N=C2/NC(c3ccc(O)cc3)(c3ccccc3O)c3ccccc32)cc1 (configuration not stated) | 11.9 µM (inactive) | 6.15 µM (inactive) | 4.65 µM (inactive) | 5.79 µM | 5.28 µM (inactive) | 3.09 µM (inactive) | 3.4 µM (inactive) | 3.52 µM (inactive) |  |  | 2.99 µM (inactive) | 3.38 µM (inactive) | 5.28 µM (inactive) |  | 3.73 µM (inactive) | 3.78 µM (inactive) | 5.08 µM (inactive) |  |  | 3.95 µM (inactive)
N/C(=N\c1ccc(Cl)cc1)NS(=O)(=O)c1cccc2nsnc12 | 15.6 µM (inactive) | 52.1 µM (inactive) | 82.2 µM (inactive) | 30.3 µM | 94.2 µM (inactive) | 55.6 µM (inactive) | 20.9 µM (inactive) | 36.6 µM (inactive) | 17.9 µM (inactive) |  | 23.7 µM (inactive) | 26.8 µM (inactive) | 45.5 µM (inactive) | 21 µM (inactive) | 11.9 µM (inactive) | 25.4 µM (inactive) | 72.8 µM (inactive) | 66.1 µM (inactive) | 19.4 µM (inactive) | 36.2 µM (inactive)
CCOC(=O)N1CCC2(CC1)C[C@](C)(C(C)=O)C(C)O2 (some centres not stated) | > 100 µM (inactive) | > 100 µM (inactive) |  | > 100 µM | > 100 µM (inactive) | > 100 µM (inactive) | > 100 µM (inactive) | > 100 µM (inactive) | > 100 µM (inactive) | > 100 µM (inactive) |  | > 100 µM (inactive) | > 100 µM (inactive) | > 100 µM (inactive) | > 100 µM (inactive) |  | > 100 µM (inactive) | > 100 µM (inactive) | > 100 µM (inactive) | > 100 µM (inactive)
Cc1cc(C)nc(NC(=O)c2ccc(Br)s2)c1 | 30.5 µM (inactive) | 48.4 µM (inactive) | > 100 µM (inactive) | 94.8 µM | > 100 µM (inactive) | > 100 µM (inactive) |  | > 100 µM (inactive) | 21.7 µM (inactive) | 79.1 µM (inactive) | 31.8 µM (inactive) | > 100 µM (inactive) | 20.5 µM (inactive) | > 100 µM (inactive) | > 100 µM (inactive) | > 100 µM (inactive) | > 100 µM (inactive) | > 100 µM (inactive) | > 100 µM (inactive) | 28 µM (inactive)
CSc1nc(Nc2cccc(C(F)(F)F)c2)c2c(N)nn(C)c2n1 | 48 µM (inactive) | 43.6 µM (inactive) | > 100 µM (inactive) | > 100 µM | > 100 µM (inactive) | 51.9 µM (inactive) | > 100 µM (inactive) | 84.9 µM (inactive) | > 100 µM (inactive) | > 100 µM (inactive) | > 100 µM (inactive) | > 100 µM (inactive) | 38 µM (inactive) | > 100 µM (inactive) | > 100 µM (inactive) | > 100 µM (inactive) | > 100 µM (inactive) | > 100 µM (inactive) | > 100 µM (inactive) | 
COC(=O)C1(NC(=O)C(CC(=O)OCc2ccccc2)NC(=O)OCc2ccccc2)CCCCCC1 (configuration not stated) |  | 32.8 µM (inactive) | 66.5 µM (inactive) | 38.1 µM | 10.1 µM (inactive) | 22 µM (inactive) | 15.6 µM (inactive) | 23.2 µM (inactive) | 32.4 µM (inactive) | 28.8 µM (inactive) | 24.7 µM (inactive) | 42 µM (inactive) | 34.4 µM (inactive) | 26.3 µM (inactive) |  |  | 51.8 µM (inactive) | 42.8 µM (inactive) | 44.9 µM (inactive) | 33 µM (inactive)
O=C(Cc1ccccc1)NNc1nc(NNC(=O)c2ccncc2)nc(Nc2ccc(Cl)cc2)n1 |  | > 10 µM (inactive) | > 10 µM (inactive) | > 10 µM | > 10 µM (inactive) |  | > 10 µM (inactive) | > 10 µM (inactive) | > 10 µM (inactive) |  | > 10 µM (inactive) | > 10 µM (inactive) |  | > 10 µM (inactive) |  | > 10 µM (inactive) |  | > 10 µM (inactive) | > 10 µM (inactive) | > 10 µM (inactive)
